Counter-ions that a name gives are not always drawn.
What was measured:
[1] = test system: 6 Hz psychomotor seizures; assay: 6 Hz (32 mA) psychomotor seizure test; assay type: in vivo, mice; conditions: Mus musculus, 32 mA; for responders at 100 mg/kg: mice, ip, 0.5 h, read-out: 6 Hz: number of mice protected/number of mice tested (converted)
Excerpt: Psychomotor seizures were induced via corneal stimulation (6 Hz, 32 mA, 0.2 ms rectangular pulse width, 3 s duration) using a constant-current device (ECT Unit 57800, Ugo Basile, Italy). A drop of 1% solution of lidocaine hydrochloride was applied to the mouse corneas before stimulation to provide local anesthesia and ensure optimal current conductivity. After the electrical stimulation, mice were gently released and observed for the presence or absence of seizure activity, being characterized by immobility associated with rearing, forelimb clonus, twitching of the vibrissae, stun, and Straub-tail. Lack of the above symptoms or their cessation within 10 s from the stimulation was considered as absence of seizure activity. The initial anticonvulsant screening of the tested compounds was performed at a fixed dose of 100 mg/kg (four mice per group). Then ED50 was calculated for active compounds as described above.

[2] = test system: motor impairment on rotarod; assay: Rotarod test (acute neurotoxicity, NT); assay type: in vivo; conditions: ip, 100 mg/kg, 0.5 h
Description: In this test mice were trained to balance on an accelerating rotarod that rotated at 10 rotations per minute (Rotarod apparatus, May Commat RR0711, Turkey; rod diameter: 3 cm). During the training session, the animals were placed on a rotating rod for 3 min with an unlimited number of trials. Proper experiment was conducted 24 h after the training trial. On the test day, trained mice were intraperitoneally pretreated with the test compound at a dose of 100 mg/kg and just before the MES test were tested on the rotarod. Neurotoxicity was indicated by the inability of the animal to maintain equilibration on the rod for 1 min. […] Each group consisted of six animals.

[3] = test system: maximal electroshock seizures; assay: Maximal electroshock seizure (MES) test; assay type: in vivo, mice; conditions: Mus musculus; mice, ip, 100 mg/kg, 0.5 h; read-out: MES: number of mice protected/number of mice tested (converted)
Description: The MES test was performed as previously described. Stimuli (25 mA, 0.2 s, 50 Hz) were generated by a constant current stimulator (Rodent shocker, Type 221, Hugo Sachs Elektronik, Germany) and delivered with the use of auricular electrodes. During the stimulation, each mouse was restrained manually, and immediately after the stimulation gently released for observation. The endpoint was the tonic extension of the hind limbs. Mice not displaying hindlimb tonic extension were considered to be protected from seizure. The initial anticonvulsant screening of the tested compounds was performed at a fixed dose of 100 mg/kg (four mice per group). […] To evaluate the ED50, at least three groups of animals were injected with various doses of tested compounds. Each group consisted of six animals.

[4] = test system: PTZ-induced clonic seizures; assay: Subcutaneous pentylenetetrazole (scPTZ) seizure test; assay type: in vivo; conditions: mice, 100 mg/kg
Description: Clonic convulsions were induced by the subcutaneous (sc) administration of PTZ at a dose of 100 mg/kg. After PTZ injection, the mice were placed separately and observed during the next 30 min for the occurrence of clonic seizures. Clonic seizures were defined as clonus of the whole body lasting more than 3 s, with an accompanying loss of righting reflex. The latency to first clonus, the number of seizure episodes, and mortality rate were noted and compared with vehicle-treated and drug-treated groups. The absence of clonic convulsions within the observed time period was interpreted as the compound’s ability to protect against PTZ-induced seizures.

Hep G2 cells = assay: Hepatotoxicity, PrestoBlue viability assay; assay type: cell-based, human; conditions: 1–100 μM, 24 h
Description: Hepatotoxicity of tested compounds was assessed in PrestoBlue (Thermo Fisher Scientific, Waltham, MA, USA) Experiments on microplate reader (SpectraMax® iD3, Molecular Devices, San Jose, CA, USA) using human hepatocellular carcinoma cells (Hep G2) ATCC® […]. The cells were cultured in standard conditions (37 °C, 5% CO2), in Dulbecco’s Modified Eagle’s Medium-high glucose, (DMEM, Gibco, Thermo Fisher Scientific, Waltham, MA, USA) supplemented with 10% fetal bovine serum (Thermo Fisher Scientific, Waltham, MA, USA), with added 100 IU/mL penicillin (Sigma Aldrich, Steinheim, Germany) and 100 µg/mL streptomycin (Sigma Aldrich). PrestoBlue reagent is a resazurin-based solution that functions as a cell viability indicator. Metabolically active cells are capable of reducing the PrestoBlue reagent, with the colorimetric changes used as an indicator to quantify the viability of cells in culture. This change can be determined by measuring the fluorescence. After 24 h of incubation with the compounds PrestoBlue reagent was added to wells of a microplate. After 20 min of incubation at 37 °C, the fluorescence intensity (EX 530; EM 580 nm) was measured in a plate reader. Viability values were calculated as a percentage of live cells with respect to the control sample (DMSO). The negative control was medium without cells. Astemizole was used as a reference substance.

[5] = test system: latency time to pain reaction; assay: Hot plate test; assay type: in vivo; conditions: mice, 5 mg/kg, p < 0.001
Description: The hot plate test was carried out based on the Eddy and Leimbach (1953) method. In this test, the apparatus was equipped with an electrically heated surface with a temperature controller that maintains surface temperature to a set point. Herein, the temperature was set at 55 °C. The animals were treated ip either with the test compounds, or vehicle 30 min before placing the animal on a hot plate apparatus. Latency time to pain reaction, i.e., the time until the animal licked its back paws or jumped was recorded by means of the stopwatch.

| SMILES | melting point [°C] | responders at 100 mg/kg [1] [%] | NT: number of mice with motor impairment/number of mice tested [2] | responders at 100 mg/kg [3] [%] | further results |
| --- | --- | --- | --- | --- | --- |
| Cc1ccsc1C1CC(=O)N(CCCN2CCN(c3ccc(F)cc3)CC2)C1=O (racemic) (as salt: hydrochloride) [Compound 5, (R,S)-1-(3-(4-(4-Fluorophenyl)piperazin-1-yl)propyl)-3-(3-methylthiophen-2-yl)pyrrolidine-2,5-dione hydrochloride] | 160 to 162 | – | – | – | – |
| Cc1ccsc1C1CC(=O)N(CCCN2CCN(c3cccc(C(F)(F)F)c3)CC2)C1=O (racemic) (as salt: hydrochloride) [Compound 6, (R,S)-3-(3-Methylthiophen-2-yl)-1-(3-(4-(3-(trifluoromethyl)phenyl)piperazin-1-yl)propyl)pyrrolidine-2,5-dione hydrochloride] | 183 to 185 | – | – | – | – |
| Cc1ccsc1C1CC(=O)N(CCCN2CCN(c3cccc(Cl)c3)CC2)C1=O (racemic) (as salt: hydrochloride) [Compound 7, (R,S)-1-(3-(4-(3-Chlorophenyl)piperazin-1-yl)propyl)-3-(3-methylthiophen-2-yl)pyrrolidine-2,5-dione hydrochloride] | 181.5 to 183.5 | – | – | – | – |
| Cc1ccsc1C1CC(=O)N(CCCN2CCN(c3ccc(Cl)cc3)CC2)C1=O (racemic) (as salt: hydrochloride) [Compound 8, (R,S)-1-(3-(4-(4-Chlorophenyl)piperazin-1-yl)propyl)-3-(3-methylthiophen-2-yl)pyrrolidine-2,5-dione hydrochloride] | 68 to 70 | – | – | – | – |
| Cc1ccsc1C1CC(=O)N(CCCN2CCN(c3ccc(Cl)c(Cl)c3)CC2)C1=O (racemic) (as salt: hydrochloride) [Compound 9, (R,S)-1-(3-(4-(3,4-Dichlorophenyl)piperazin-1-yl)propyl)-3-(3-methylthiophen-2-yl)pyrrolidine-2,5-dione hydrochloride] | 101 to 103 | – | – | – | – |
| Cc1ccsc1C1CC(=O)N(CCCN2CCN(c3ccc(F)cc3)CC2)C1=O (racemic) [Compound 5, (R,S)-1-(3-(4-(4-Fluorophenyl)piperazin-1-yl)propyl)-3-(3-methylthiophen-2-yl)pyrrolidine-2,5-dione hydrochloride] | – | 0 | 4/4 | 0 | – |
| Cc1ccsc1C1CC(=O)N(CCCN2CCN(c3cccc(Cl)c3)CC2)C1=O (racemic) [Compound 7, (R,S)-1-(3-(4-(3-Chlorophenyl)piperazin-1-yl)propyl)-3-(3-methylthiophen-2-yl)pyrrolidine-2,5-dione hydrochloride] | – | 0 | 2/4 | 0 | – |
| Cc1ccsc1C1CC(=O)N(CCCN2CCN(c3ccc(Cl)cc3)CC2)C1=O (racemic) [Compound 8, (R,S)-1-(3-(4-(4-Chlorophenyl)piperazin-1-yl)propyl)-3-(3-methylthiophen-2-yl)pyrrolidine-2,5-dione hydrochloride] | – | 25 | 0/4 | 25 | – |
| Cc1ccsc1C1CC(=O)N(CC(=O)N2CCOCC2)C1=O (racemic) [Compound 10, (R,S)-3-(3-Methylthiophen-2-yl)-1-(2-morpholino-2-oxoethyl)pyrrolidine-2,5-dione] | 142 to 144 | 25 | 0/4 | 0 | – |
| Cc1ccsc1C1CC(=O)N(CC(=O)N2CCN(c3ccc(F)cc3)CC2)C1=O (racemic) [Compound 11, (R,S)-1-(2-(4-(4-Fluorophenyl)piperazin-1-yl)-2-oxoethyl)-3-(3-methylthiophen-2-yl)pyrrolidine-2,5-dione] | 165 to 166 | 0 | 0/4 | 0 | – |
| Cc1ccsc1C1CC(=O)N(CC(=O)N2CCN(c3cccc(C(F)(F)F)c3)CC2)C1=O (racemic) [Compound 12, (R,S)-3-(3-Methylthiophen-2-yl)-1-(2-oxo-2-(4-(3-(trifluoromethyl)phenyl)piperazin-1-yl)ethyl)pyrrolidine-2,5-dione] | 135 to 137 | 0 | 1/4 | 0 | – |
| Cc1ccsc1C1CC(=O)N(CC(=O)N2CCN(c3ccccc3Cl)CC2)C1=O (racemic) [Compound 13, (R,S)-1-(2-(4-(2-Chlorophenyl)piperazin-1-yl)-2-oxoethyl)-3-(3-methylthiophen-2-yl)pyrrolidine-2,5-dione] | 141 to 143 | 25 | 0/4 | 0 | – |
| Cc1ccsc1C1CC(=O)N(CC(=O)N2CCN(c3ccc(Cl)cc3)CC2)C1=O (racemic) [Compound 15, (R,S)-1-(2-(4-(4-Chlorophenyl)piperazin-1-yl)-2-oxoethyl)-3-(3-methylthiophen-2-yl)pyrrolidine-2,5-dione] | 179 to 181 | 25 | 0/4 | 0 | – |
| Cc1ccsc1C1CC(=O)N(CC(=O)N2CCN(c3cccc(Cl)c3Cl)CC2)C1=O (racemic) [Compound 16, (R,S)-1-(2-(4-(2,3-Dichlorophenyl)piperazin-1-yl)-2-oxoethyl)-3-(3-methylthiophen-2-yl)pyrrolidine-2,5-dione] | 112 to 113.5 | 0 | 0/4 | 0 | – |
| Cc1ccsc1C1CC(=O)N(CC(=O)N2CCN(c3ccc(Cl)c(Cl)c3)CC2)C1=O (racemic) [Compound 17, (R,S)-1-(2-(4-(3,4-Dichlorophenyl)piperazin-1-yl)-2-oxoethyl)-3-(3-methylthiophen-2-yl)pyrrolidine-2,5-dione] | – | 50 | 0/4 | 0 | scPTZ: effect in words [4]: no significant effect; ED50 ([1]; mice ip, 95% confidence limit in brackets): > 150 mg/kg |
| COc1ccc(CCN2CCC(Nc3nc4ccccc4n3Cc3ccc(F)cc3)CC2)cc1 [Astemizole, reference compound] | – | – | – | – | Hepatotoxicity in HepG2 cells, in words (Hep G2 cells): inhibits the viability of HepG2 cells in a dose-dependent manner |
| CN1CC[C@]23c4c5ccc(O)c4O[C@H]2[C@@H](O)C=C[C@H]3[C@H]1C5 [morphine, reference compound] | – | – | – | – | Hot plate: prolongation of latency time to pain reaction [5]: 74% |

— PMC7461116, “Synthesis, Anticonvulsant and Antinociceptive Activity of New Hybrid Compounds: Derivatives of 3-(3-Methylthiophen-2-yl)-pyrrolidine-2,5-dione” (International Journal of Molecular Sciences, 2020)
